Assay results as given in US20070066570A1, “Methods for treating sleep disorders” (priority 2003, published 2007).

Tested on: Adult, male Wistar rats
Assay: Sleep-wakefulness monitoring (EEG/EMG, SCORE-2000) in rats: NREM sleep cumulation and longest uninterrupted sleep bout
Type: in vivo, rat
Conditions: for LUSB (longest uninterrupted sleep bout each hour, mean adjusted for baseline and vehicle control) / NREM (mean maximum cumulation of NREM sleep over baseline, adjusted for baseline and vehicle control): intraperitoneal bolus at CT-18, male Wistar rats; for Increase of NREM sleep cumulation versus vehicle control (FIGS. 1-3), in words / Increase of LUSB versus vehicle control (FIGS. 4-6), in words: rats
Description: Sleep-wakefulness, locomotor activity and body temperature were monitored in vivo with the disclosed racemic sleep-inducing agent 1 and its R and S isomers 1-R and 1-S. Adult, male Wistar rats (250 g at time of surgery, Charles River Laboratories, Wilmington Mass.) were anesthetized (Nembutal, 62 mg/kg) and surgically prepared with a cranial implant to permit chronic electro-encephalogram (EEG) and electromyogram (EMG) recording. Body temperature and locomotor activity were monitored via a miniature transmitter (Mini-Mitter, Bend, Oreg.) surgically placed in the abdomen. The cranial implant consisted of stainless steel screws (two frontal [+3.2 AP from bregma, ±2.0 ML] and two occipital [−6.9 AP, ±5.5 ML]) for EEG recording. Two Teflon®-coated stainless steel wires were positioned under the nuchal trapezoid muscles for EMG recording. All leads were soldered to a miniature connector prior to surgery, and gas sterilized in ethylene oxide. The implant assembly was affixed to the skull with dental acrylic. A minimum of three weeks was allowed for surgical recovery.
Each rat was permanently housed in its own individual recording cage located within separate, ventilated compartments of custom- designed stainless steel cabinets. Each cage was enhanced with a filter-top riser and low-torque swivel-commutator. Food and water were available ad libitum. A 24-hr light-dark cycle (12 hours light, 12 hours dark) was maintained throughout the study using 4-watt fluorescent bulbs 5 cm from the cage. Animals were undisturbed for at least 48 hours before and after treatments.
Sleep and wakefulness were determined using “SCORE-2000™” (Hypnion, Worcester, Mass.)—an internet-based sleep-wake and physiological monitoring system. The system monitored amplified EEG (bandpass 1-30 Hz; digitization rate 400 Hz), integrated EMG (bandpass 10-100 Hz), body temperature and non-specific locomotor activity (LMA) via telemetry, and drinking activity, continuously and simultaneously. Arousal states were classified on-line as non-REM (NREM) sleep, REM sleep, wake, or theta-dominated wake every 10 seconds using EEG feature extraction and pattern-matching algorithms. […] The classification algorithm used individually-taught EEG-arousal-state templates, plus EMG criteria to differentiate REM sleep from theta-dominated wakefulness, plus behavior-dependent contextual rules (e.g., if the animal was drinking, it is awake). Drinking and locomotor activity (LMA) were recorded as discrete events every 10 seconds, while body temperature was recorded each minute. Locomotor activity was detected by a telemetry receiver (Mini-Mitter) beneath the cage. Telemetry measures (LMA and body temperature) were not part of the scoring algorithm; thus, sleep-scoring and telemetry data were independent measures.
Compounds were administered at CT-18, the peak of the activity-dominated period, in order to ensure prior wakefulness was sufficient to interact positively with hypnotic-drug effects, and sufficient time was allowed to view the time course of the treatment effect before lights-on (6 hours post-treatment). Compounds were suspended in sterile 0.25% or 0.5% methylcellulose (2 ml/kg). Treatments were administered as an intraperitoneal bolus.
A parallel group study design was employed. Vehicle controls were drawn from a large pool (N>200): a subset of the pooled vehicle controls was selected, based on computerized matching with the 24-hour pre-treatment baseline of the active treatment group.
In Table 1, N is the number of trials, and NREM and LUSB values are means adjusted for both baseline and vehicle control values. NREM represents the mean maximum cumulation of NREM sleep in minutes over baseline as a function of time in hours after treatment with the compound or the vehicle control; LUSB is the longest uninterrupted sleep bout each hour in minutes as a function of circadian time.

Compound	LUSB (longest uninterrupted sleep bout each hour, mean adjusted for baseline and vehicle control) (3 mg/kg)	NREM (mean maximum cumulation of NREM sleep over baseline, adjusted for baseline and vehicle control) (3 mg/kg)	LUSB (longest uninterrupted sleep bout each hour, mean adjusted for baseline and vehicle control) (10 mg/kg)	NREM (mean maximum cumulation of NREM sleep over baseline, adjusted for baseline and vehicle control) (10 mg/kg)	Increase of NREM sleep cumulation versus vehicle control (FIGS. 1-3), in words (10 mg/kg)	LUSB (longest uninterrupted sleep bout each hour, mean adjusted for baseline and vehicle control) (30 mg/kg)	NREM (mean maximum cumulation of NREM sleep over baseline, adjusted for baseline and vehicle control) (30 mg/kg)	Increase of LUSB versus vehicle control (FIGS. 4-6), in words (30 mg/kg)	Increase of NREM sleep cumulation versus vehicle control (FIGS. 1-3), in words (30 mg/kg)	LUSB (longest uninterrupted sleep bout each hour, mean adjusted for baseline and vehicle control) (45 mg/kg)	NREM (mean maximum cumulation of NREM sleep over baseline, adjusted for baseline and vehicle control) (45 mg/kg)
O=C(O)C1CCCN(CCC=C2c3ccccc3CCc3ccccc32)C1 (racemic) [Compound 1]	4.7 min	15 min	2.8 min	24.8 min	particularly effective	4.9 min	35.4 min	effective at increasing LUSB	effective at increasing NREM cumulation		
O=C(O)[C@@H]1CCCN(CCC=C2c3ccccc3CCc3ccccc32)C1 [Compound 1-R]			2.5 min	3.4 min		5.8 min	20.7 min	effective at increasing LUSB	effective at increasing NREM cumulation	10.3 min	31.8 min
O=C(O)[C@H]1CCCN(CCC=C2c3ccccc3CCc3ccccc32)C1 [Compound 1-S]			5.5 min	31.9 min	particularly effective	9.7 min	31.8 min	effective at increasing LUSB	effective at increasing NREM cumulation		
